Measurements taken from US20020133837A1, “Transgenic animals at a nuclear hormone receptor locus” (priority 2001, published 2002).
Entries after “also recorded” stand apart in the source; their conditions may differ.

Tested on: inbred transgenic mice with mutant thyroid hormone receptor beta (TRβPV) and wild-type mice
Experiment: Behavioral analysis of locomotor activity (light beam breaks) after methylphenidate
Assay type: in vivo, mouse
Conditions: methylphenidate 7.5 mg/kg or 30.0 mg/kg on day 3, activity assessed for 3 hours following injection
Protocol: Animals were kept on a light-dark schedule of 12 hours with lights on at 6:00 a.m. Behavioral tests were started between 4:30 p.m. and 5:30 p.m. Eleven-to sixteen-week-old mice were assessed in a 15×30 cm cage with four light beams crossing the cage on the long axis. Locomotor activity was measured by computer-automated counting of the number of times a light beam was blocked (San Diego Instruments, San Diego, Calif.). Activity was measured for 3 hours upon introduction of each animal to the chamber on day 1 to measure baseline/novel behavior levels (see FIG. 3), and the animals remained in the chambers for the length of the experiment (3 days) to permit drug response in an acclimated environment. On day 2, animals were injected with saline (i.p),and on day 3 with methylphenidate (7.5 mg/kg or 30.0 mg/kg). Food and water were provided ad libitum, and activity was assessed for 3 hours following injection. Activity scores were subjected to analysis of variance (ANOVA) analysis to compare the groups by genotype and injection status.

COC(=O)C(c1ccccc1)C1CCCCN1 (centres unmarked) [methylphenidate]
level of locomotor activity in response to methylphenidate (heterozygous and homozygous TRβ PV mutant inbred mice): decreased levels of activity; also recorded: responded to treatment; also recorded: reduced their level of activity; also recorded: level of activity in these mice was reduced
level of locomotor activity in response to methylphenidate (wild-type mice): increase in activity
